From ChEMBL document CHEMBL3885881, “DrugMatrix”

Species on record: Rattus norvegicus
Assay: DrugMatrix - Regimen: Daily Repeat
Type: toxicity, organism-based, Sprague-Dawley
Parameters: regimen Daily Repeat, gender Male, age 6-8 weeks
Conditions: in vivo, po, route oral GAVAGE, vehicle 100 % WATER; for ABSOLUTE BASOPHIL / ABSOLUTE EOSINOPHIL / ABSOLUTE LYMPHOCYTE / ABSOLUTE MONOCYTE / ABSOLUTE SEGMENTED NEUTROPHIL / BASOPHIL / EOSINOPHIL / ERYTHROCYTE COUNT / HEMATOCRIT / HEMOGLOBIN / LEUKOCYTE COUNT / LYMPHOCYTE / MEAN CORPUSCULAR HEMOGLOBIN / MEAN CORPUSCULAR HEMOGLOBIN CONCENTRATION / MEAN CORPUSCULAR VOLUME / MONOCYTE / NEUTROPHIL / NUCLEATED RED BLOOD CELLS / PLATELET COUNT: tissue Blood; for ALANINE AMINOTRANSFERASE / ALBUMIN / ALKALINE PHOSPHATASE / ASPARTATE AMINOTRANSFERASE / BLOOD UREA NITROGEN / CARBON DIOXIDE / CHLORIDE / CHOLESTEROL / CREATINE PHOSPHOKINASE / CREATININE / GLUCOSE / LACTATE DEHYDROGENASE / LIPASE / PHOSPHORUS / POTASSIUM / SODIUM / TOTAL BILIRUBIN / TOTAL PROTEIN / URIC ACID: tissue Plasma
[1] = 39 mg/kg, 120 h, dose level Low, time 5 day
[2] = 150 mg/kg, 72 h, dose level High, time 3 day
[3] = 150 mg/kg, 120 h, dose level High, time 5 day

`C[C@]12Cc3c[nH]nc3C[C@@H]1CC[C@@H]1[C@@H]2CC[C@@]2(C)[C@H]1CC[C@]2(C)O` [STANOZOLOL] was tested, and the “ABSOLUTE BASOPHIL” value [1] was 0 CELLS/uL, the “ABSOLUTE EOSINOPHIL” value [1] was 55.33 CELLS/uL and the “ABSOLUTE LYMPHOCYTE” value [1] was 11411 CELLS/uL. The “ABSOLUTE MONOCYTE” value [1] was 142 CELLS/uL, the “ABSOLUTE SEGMENTED NEUTROPHIL” value [1] was 1025 CELLS/uL and the BASOPHIL [1] was 0%. For the same molecule, the EOSINOPHIL [1] was 0.33%, the “ERYTHROCYTE COUNT” value [1] was 5.64 x10E6/uL and the HEMATOCRIT [1] was 35.63%. For the same molecule, the HEMOGLOBIN [1] was 13.63 G/DL, the “LEUKOCYTE COUNT” value [1] was 12.63 x10E3/uL and the LYMPHOCYTE [1] was 90.33%. For the same molecule, the “MEAN CORPUSCULAR HEMOGLOBIN” value [1] was 24.33 pg, the “MEAN CORPUSCULAR HEMOGLOBIN CONCENTRATION” value [1] was 38.33 G/DL and the “MEAN CORPUSCULAR VOLUME” value [1] was 63.43 fL. For the same molecule, the MONOCYTE [1] was 1.33%, the NEUTROPHIL [1] was 8% and the “NUCLEATED RED BLOOD CELLS” value [1] was 0.67 /100WBC. The “PLATELET COUNT” value [1] was 1199.33 x10E3/uL, the “ALANINE AMINOTRANSFERASE” value [1] was 55.67 u/L and the ALBUMIN [1] was 3.87 G/DL. For the same molecule, the “ALKALINE PHOSPHATASE” value [1] was 492.33 u/L, the “ASPARTATE AMINOTRANSFERASE” value [1] was 81.67 u/L and the “BLOOD UREA NITROGEN” value [1] was 13.33 mg/dL. The “CARBON DIOXIDE” value [1] was 32.67 mmol/L, the CHLORIDE [1] was 98.67 MEQ/L and the CHOLESTEROL [1] was 35 mg/dL. For the same molecule, the “CREATINE PHOSPHOKINASE” value [1] was 259.67 u/L, the CREATININE [1] was 0.16 mg/dL and the GLUCOSE [1] was 144 mg/dL. For the same molecule, the “LACTATE DEHYDROGENASE” value [1] was 113 u/L, the LIPASE [1] was 8 u/L and the PHOSPHORUS [1] was 10.33 mg/dL. For the same molecule, the POTASSIUM [1] was 5.69 MEQ/L, the SODIUM [1] was 144.47 MEQ/L and the “TOTAL BILIRUBIN” value [1] was 0.2 mg/dL. For the same molecule, the “TOTAL PROTEIN” value [1] was 6.07 G/DL, the “URIC ACID” value [1] was 0.33 mg/dL and the “ABSOLUTE BASOPHIL” value [2] was 0 CELLS/uL. For the same molecule, the “ABSOLUTE EOSINOPHIL” value [2] was 39.67 CELLS/uL, the “ABSOLUTE LYMPHOCYTE” value [2] was 9030.67 CELLS/uL and the “ABSOLUTE MONOCYTE” value [2] was 107.33 CELLS/uL. The “ABSOLUTE SEGMENTED NEUTROPHIL” value [2] was 755.67 CELLS/uL, the BASOPHIL [2] was 0% and the EOSINOPHIL [2] was 0.33%. For the same molecule, the “ERYTHROCYTE COUNT” value [2] was 6.43 x10E6/uL, the HEMATOCRIT [2] was 39.27% and the HEMOGLOBIN [2] was 14.53 G/DL. For the same molecule, the “LEUKOCYTE COUNT” value [2] was 9.93 x10E3/uL, the LYMPHOCYTE [2] was 91% and the “MEAN CORPUSCULAR HEMOGLOBIN” value [2] was 22.63 pg. The “MEAN CORPUSCULAR HEMOGLOBIN CONCENTRATION” value [2] was 37.07 G/DL, the “MEAN CORPUSCULAR VOLUME” value [2] was 61.07 fL and the MONOCYTE [2] was 1%. The NEUTROPHIL [2] was 7.67%, the “NUCLEATED RED BLOOD CELLS” value [2] was 0.33 /100WBC and the “PLATELET COUNT” value [2] was 951 x10E3/uL. The “ALANINE AMINOTRANSFERASE” value [2] was 74 u/L, the ALBUMIN [2] was 4.1 G/DL and the “ALKALINE PHOSPHATASE” value [2] was 493.67 u/L. The “ASPARTATE AMINOTRANSFERASE” value [2] was 138.33 u/L, the “BLOOD UREA NITROGEN” value [2] was 12.67 mg/dL and the “CARBON DIOXIDE” value [2] was 34.33 mmol/L. The CHLORIDE [2] was 96.5 MEQ/L, the CHOLESTEROL [2] was 46.67 mg/dL and the “CREATINE PHOSPHOKINASE” value [2] was 1177 u/L. For the same molecule, the CREATININE [2] was 0.14 mg/dL, the GLUCOSE [2] was 134.33 mg/dL and the “LACTATE DEHYDROGENASE” value [2] was 200 u/L. It also gave an LIPASE [2] of 11 u/L, a PHOSPHORUS [2] of 11.53 mg/dL and a POTASSIUM [2] of 6.12 MEQ/L. For the same molecule, the SODIUM [2] was 142.35 MEQ/L, the “TOTAL BILIRUBIN” value [2] was 0.33 mg/dL and the “TOTAL PROTEIN” value [2] was 6.33 G/DL. For the same molecule, the “URIC ACID” value [2] was 0.5 mg/dL, the “ABSOLUTE BASOPHIL” value [3] was 0 CELLS/uL and the “ABSOLUTE EOSINOPHIL” value [3] was 31.33 CELLS/uL. The “ABSOLUTE LYMPHOCYTE” value [3] was 9499.67 CELLS/uL, the “ABSOLUTE MONOCYTE” value [3] was 0 CELLS/uL and the “ABSOLUTE SEGMENTED NEUTROPHIL” value [3] was 1135.67 CELLS/uL. The BASOPHIL [3] was 0%, the EOSINOPHIL [3] was 0.33% and the “ERYTHROCYTE COUNT” value [3] was 6.28 x10E6/uL. For the same molecule, the HEMATOCRIT [3] was 37.87%, the HEMOGLOBIN [3] was 14.4 G/DL and the “LEUKOCYTE COUNT” value [3] was 10.67 x10E3/uL. For the same molecule, the LYMPHOCYTE [3] was 88.67%, the “MEAN CORPUSCULAR HEMOGLOBIN” value [3] was 22.93 pg and the “MEAN CORPUSCULAR HEMOGLOBIN CONCENTRATION” value [3] was 38.03 G/DL. The “MEAN CORPUSCULAR VOLUME” value [3] was 60.33 fL, the MONOCYTE [3] was 0% and the NEUTROPHIL [3] was 11%. The “NUCLEATED RED BLOOD CELLS” value [3] was 0 /100WBC, the “PLATELET COUNT” value [3] was 1393.33 x10E3/uL and the “ALANINE AMINOTRANSFERASE” value [3] was 46 u/L. For the same molecule, the ALBUMIN [3] was 3.87 G/DL, the “ALKALINE PHOSPHATASE” value [3] was 445.33 u/L and the “ASPARTATE AMINOTRANSFERASE” value [3] was 64.67 u/L. For the same molecule, the “BLOOD UREA NITROGEN” value [3] was 16 mg/dL, the “CARBON DIOXIDE” value [3] was 32.33 mmol/L and the CHLORIDE [3] was 99 MEQ/L. For the same molecule, the CHOLESTEROL [3] was 12.33 mg/dL, the “CREATINE PHOSPHOKINASE” value [3] was 238.67 u/L and the CREATININE [3] was 0.14 mg/dL. The GLUCOSE [3] was 131.33 mg/dL, the “LACTATE DEHYDROGENASE” value [3] was 117.33 u/L and the LIPASE [3] was 7.67 u/L. For the same molecule, the PHOSPHORUS [3] was 11.13 mg/dL, the POTASSIUM [3] was 5.01 MEQ/L and the SODIUM [3] was 144.1 MEQ/L. For the same molecule, the “TOTAL BILIRUBIN” value [3] was 0.1 mg/dL, the “TOTAL PROTEIN” value [3] was 5.8 G/DL and the “URIC ACID” value [3] was 0.3 mg/dL.
